Reference: ChEMBL document CHEMBL1800055, “Orally active MMP-1 sparing α-tetrahydropyranyl and α-piperidinyl sulfone matrix metalloproteinase (MMP) inhibitors with efficacy in cancer, arthritis, and cardiovascular disease” (J Med Chem, 2010)

How the values were obtained:
Interstitial collagenase = biological target: T1, Interstitial collagenase (Homo sapiens, UniProt P03956); format: cell-based, HT-1080
T1 sequence (P03956 whole entry): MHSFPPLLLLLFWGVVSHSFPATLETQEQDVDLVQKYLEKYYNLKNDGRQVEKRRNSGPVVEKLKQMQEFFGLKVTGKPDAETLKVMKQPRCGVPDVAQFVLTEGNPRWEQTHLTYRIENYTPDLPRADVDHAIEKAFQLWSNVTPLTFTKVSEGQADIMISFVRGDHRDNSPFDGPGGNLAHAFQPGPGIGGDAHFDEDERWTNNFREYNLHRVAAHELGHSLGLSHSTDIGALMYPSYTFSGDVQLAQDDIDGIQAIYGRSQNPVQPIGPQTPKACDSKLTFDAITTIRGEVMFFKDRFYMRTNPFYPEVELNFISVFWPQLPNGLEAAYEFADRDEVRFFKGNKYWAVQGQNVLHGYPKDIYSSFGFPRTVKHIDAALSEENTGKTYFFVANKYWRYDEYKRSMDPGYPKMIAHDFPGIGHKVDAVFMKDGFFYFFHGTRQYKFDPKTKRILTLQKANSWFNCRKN

[1] = biological target: 72 kDa type IV collagenase (Homo sapiens, UniProt P08253)
Collagenase 3 = Collagenase 3 (Homo sapiens, UniProt P45452)
Rattus norvegicus [2] = experiment: Cardioprotective activity in rat myocardial infarction model assessed inhibition of left ventricular dilation at 50 mg/kg, po qd for 4 weeks (reference value: 0.69 +/- 0.02 mL); format: functional, Heart left ventricle
Cartilage tissue = experiment: Ex vivo inhibition of IL-1 and oncostatin M-induced bovine nasal cartilage degradation assessed as release of hydroxproline measured up to 16 days by mass spectrometry; format: functional, tissue-based; conditions: Bos taurus, 384 h
Stromelysin-1 = Stromelysin-1 (Homo sapiens, UniProt P08254)
Matrilysin = biological target: T2, Matrilysin (Homo sapiens, UniProt P09237)
T2 sequence (P09237 whole entry): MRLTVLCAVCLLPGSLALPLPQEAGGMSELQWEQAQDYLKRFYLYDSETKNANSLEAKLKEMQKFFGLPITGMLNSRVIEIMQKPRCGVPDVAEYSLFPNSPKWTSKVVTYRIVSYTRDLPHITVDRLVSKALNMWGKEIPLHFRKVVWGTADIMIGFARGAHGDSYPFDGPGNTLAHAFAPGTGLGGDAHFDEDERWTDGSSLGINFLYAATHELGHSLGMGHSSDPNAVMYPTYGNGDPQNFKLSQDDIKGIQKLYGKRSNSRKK

Neutrophil collagenase = Neutrophil collagenase (Homo sapiens, UniProt P22894)
[3] = Cmax in rat at 20 mg/kg, po; format: ADME, organism-based; set-up: dose 20 mg/kg, route oral; conditions: in vivo
Rattus norvegicus [4] = experiment: Plasma concentration in rat at 20 mg/kg, po; format: ADME, organism-based; set-up: dose 20 mg/kg, route oral; conditions: in vivo
[5] = Half life in rat at 20 mg/kg, po; format: ADME, organism-based; set-up: dose 20 mg/kg, route oral; conditions: in vivo
[6] = Oral bioavailability in rat at 20 mg/kg; format: ADME, organism-based; conditions: in vivo

Chain of Neutrophil collagenase (P22894 whole entry): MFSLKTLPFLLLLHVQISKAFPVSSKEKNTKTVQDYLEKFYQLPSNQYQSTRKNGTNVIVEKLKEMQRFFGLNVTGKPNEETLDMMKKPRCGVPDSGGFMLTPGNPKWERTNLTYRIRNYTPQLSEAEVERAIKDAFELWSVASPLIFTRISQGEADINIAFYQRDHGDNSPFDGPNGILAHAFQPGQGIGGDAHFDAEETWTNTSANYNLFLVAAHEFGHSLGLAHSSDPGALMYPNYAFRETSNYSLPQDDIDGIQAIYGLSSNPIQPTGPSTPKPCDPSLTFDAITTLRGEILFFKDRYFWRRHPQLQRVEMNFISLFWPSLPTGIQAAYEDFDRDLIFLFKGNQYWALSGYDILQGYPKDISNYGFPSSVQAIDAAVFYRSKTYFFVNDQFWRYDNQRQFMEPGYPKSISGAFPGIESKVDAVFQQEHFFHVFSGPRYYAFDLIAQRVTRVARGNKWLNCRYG
Chain of Stromelysin-1 (P08254 whole entry): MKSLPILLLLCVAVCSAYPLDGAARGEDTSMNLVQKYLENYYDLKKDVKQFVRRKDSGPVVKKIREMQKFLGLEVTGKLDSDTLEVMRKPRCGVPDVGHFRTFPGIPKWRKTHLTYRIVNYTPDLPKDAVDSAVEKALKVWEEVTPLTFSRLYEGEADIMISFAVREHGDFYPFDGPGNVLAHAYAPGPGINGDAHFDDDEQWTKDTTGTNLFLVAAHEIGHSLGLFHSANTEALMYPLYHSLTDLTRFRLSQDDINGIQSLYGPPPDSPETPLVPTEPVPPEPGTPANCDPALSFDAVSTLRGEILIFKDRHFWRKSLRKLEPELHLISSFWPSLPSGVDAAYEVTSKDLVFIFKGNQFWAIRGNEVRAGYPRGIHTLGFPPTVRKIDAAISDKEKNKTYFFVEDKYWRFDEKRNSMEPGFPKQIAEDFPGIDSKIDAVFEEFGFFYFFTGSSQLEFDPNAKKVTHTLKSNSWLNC
Chain of 72 kDa type IV collagenase (P08253 whole entry): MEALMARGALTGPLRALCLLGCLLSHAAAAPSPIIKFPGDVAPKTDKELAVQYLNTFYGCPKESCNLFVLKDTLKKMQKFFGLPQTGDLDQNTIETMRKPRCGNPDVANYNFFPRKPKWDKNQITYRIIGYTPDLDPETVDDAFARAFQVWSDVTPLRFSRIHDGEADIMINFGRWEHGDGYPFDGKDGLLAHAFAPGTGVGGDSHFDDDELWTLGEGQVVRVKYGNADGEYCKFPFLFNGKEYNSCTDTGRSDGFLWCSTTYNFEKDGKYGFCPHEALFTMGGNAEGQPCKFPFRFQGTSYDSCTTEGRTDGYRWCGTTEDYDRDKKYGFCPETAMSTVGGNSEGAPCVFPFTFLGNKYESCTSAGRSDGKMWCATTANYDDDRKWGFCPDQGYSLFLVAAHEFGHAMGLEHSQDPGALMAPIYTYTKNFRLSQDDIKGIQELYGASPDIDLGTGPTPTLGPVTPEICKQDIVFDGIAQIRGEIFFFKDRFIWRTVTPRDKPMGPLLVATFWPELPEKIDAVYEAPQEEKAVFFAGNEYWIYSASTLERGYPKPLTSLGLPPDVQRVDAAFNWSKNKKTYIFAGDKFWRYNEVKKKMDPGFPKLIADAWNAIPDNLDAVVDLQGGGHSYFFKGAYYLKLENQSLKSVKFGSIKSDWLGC

Structure (SMILES) | IC50 (Interstitial collagenase) | IC50 [1] | IC50 (Collagenase 3) | Activity (Rattus norvegicus [2]) | IC50 (Cartilage tissue) | IC50 (Stromelysin-1) | IC50 (Matrilysin) | IC50 (Neutrophil collagenase) | Cmax [3] | Cp (Rattus norvegicus [4]) | half-life [5] | bioavailability [6]
C#CCN1CCC(C(=O)NO)(S(=O)(=O)c2ccc(Oc3ccc(S(C)(=O)=O)cc3)cc2)CC1 | > 10 µM | 0.0033 µM | 0.0029 µM | 0.63 mL | – | – | – | – | – | – | – | –
O=C(NO)C1(CS(=O)(=O)c2ccc(Oc3ccc(Cl)cc3)cc2)CCOCC1 [CTS-1027] | – | – | – | – | 0.03 µM | – | – | – | – | – | – | –
COCCN1CCC(C(=O)NO)(S(=O)(=O)c2ccc(Oc3ccc(SC(F)(F)F)cc3)cc2)CC1 | > 10 µM | 0.0002 µM | 0.0002 µM | – | – | 0.0239 µM | 9 µM | 0.0019 µM | 32900 ng/mL | 14078 ng/mL | 2.99 h | 34.1%
O=C(NO)C1(S(=O)(=O)c2ccc(Oc3ccc(OC(F)(F)F)cc3)cc2)CCN(Cc2ccccn2)CC1 | 6 µM | – | < 0.0001 µM | – | – | 0.115 µM | > 10 µM | 0.0006 µM | 36800 ng/mL | 1850 ng/mL | 1.25 h | 46.8%
